Data as given in PubChem BioAssay AID328 (DTP/NCI, 2004).
Where “and” joins values, the source holds several entries; their conditions need not be identical. Equal entries are not always repeated. Inconclusive results and toxic doses are left out.

Test system: BDF1 mice, P388 leukemia ip, median survival T/C
Test: NCI In Vivo Anticancer Drug Screen. Data for tumor model P388 Leukemia (intraperitoneal) in B6D2F1 (BDF1) mice
Details: endpoint: median survival time, higher = longer survival
Experimental: The antitumor activity of compounds was measured in mice bearing transplantable tumors. Survival or tumor size were measured and the results are expressed as the measurement made in the treated group (T) divided by the measurement made in the vehicle treated control group (C). The tumor model used in this assay is P388 Leukemia (intraperitoneal) in B6D2F1 (BDF1) mice

[1] = dose: 100.0 mg/kg/injection, schedule: Q01DX009 (ip), vehicle: saline
[2] = dose: 400.0 mg/kg/injection, schedule: Q01DX009 (ip), vehicle: saline
[3] = dose: 50.0 mg/kg/injection, schedule: Q01DX009 (ip), vehicle: saline with Tween-80
[4] = dose: 100.0 mg/kg/injection, schedule: Q01DX009 (ip), vehicle: saline with Tween-80
[5] = dose: 200.0 mg/kg/injection, schedule: Q01DX009 (ip), vehicle: saline with Tween-80
[6] = dose: 100.0 mg/kg/injection, schedule: Q04DX003 (ip), vehicle: saline with Tween-80
[7] = dose: 200.0 mg/kg/injection, schedule: Q04DX003 (ip), vehicle: Klucel (hydroxypropylcellulose) (HPC)
[8] = dose: 50.0 mg/kg/injection, schedule: Q01DX009 (ip), vehicle: Klucel (hydroxypropylcellulose) (HPC)
[9] = dose: 100.0 mg/kg/injection, schedule: Q01DX009 (ip), vehicle: Klucel (hydroxypropylcellulose) (HPC)

For `FC(F)(F)c1ccc2nc(CI)c(CI)nc2c1`, the T/C (dose: 1.37 mg/kg/injection, schedule: Q01DX009 (ip), vehicle: saline) was 115 % of control, the T/C (dose: 1.5 mg/kg/injection, schedule: Q01DX009 (ip), vehicle: Klucel (hydroxypropylcellulose) (HPC)) was 105 % of control and the T/C (dose: 2.05 mg/kg/injection, schedule: Q01DX009 (ip), vehicle: saline) was 115 % of control. The T/C (dose: 3.0 mg/kg/injection, schedule: Q01DX009 (ip), vehicle: Klucel (hydroxypropylcellulose) (HPC)) was 105 % of control, the T/C (dose: 6.0 mg/kg/injection, schedule: Q01DX009 (ip), vehicle: Klucel (hydroxypropylcellulose) (HPC)) was 111 % of control and the T/C (dose: 12.0 mg/kg/injection, schedule: Q01DX009 (ip), vehicle: Klucel (hydroxypropylcellulose) (HPC)) was 122 % of control. The T/C (dose: 12.0 mg/kg/injection, schedule: Q01DX009 (ip), vehicle: saline) was 105 % of control, the T/C (dose: 12.0 mg/kg/injection, schedule: Q04DX003 (ip), vehicle: Klucel (hydroxypropylcellulose) (HPC)) was 118 % of control and the T/C (dose: 12.5 mg/kg/injection, schedule: Q01DX009 (ip), vehicle: saline with Tween-80) was 105 % of control. The T/C (dose: 18.0 mg/kg/injection, schedule: Q01DX009 (ip), vehicle: saline) was 100 % of control, the T/C (dose: 24.0 mg/kg/injection, schedule: Q01DX009 (ip), vehicle: Klucel (hydroxypropylcellulose) (HPC)) was 122 % of control and the T/C (dose: 25.0 mg/kg/injection, schedule: Q04DX003 (ip), vehicle: Klucel (hydroxypropylcellulose) (HPC)) was 109 % of control. The T/C (dose: 27.0 mg/kg/injection, schedule: Q01DX009 (ip), vehicle: saline) was 105 % of control, the T/C (dose: 28.0 mg/kg/injection, schedule: Q01DX009 (ip), vehicle: saline) was 100 % of control and the T/C (dose: 40.0 mg/kg/injection, schedule: Q01DX009 (ip), vehicle: saline) was 89 % of control. The T/C (dose: 48.0 mg/kg/injection, schedule: Q01DX009 (ip), vehicle: Klucel (hydroxypropylcellulose) (HPC)) was 122 % of control.
`NC(=O)NOCC1NC(=O)C(CONC(N)=O)NC1=O` (stereo not given) was tested, and the T/C [1] was 116 % of control and the T/C [2] was 105 % of control.
For `Cc1ccc2c(c1)SSc1ccc(C)cc1SS2`, the T/C [3] was 103 % of control, the T/C [4] was 109 % of control and the T/C [5] was 114 % of control.
With `COc1ccc(C(C(N)=O)N2CCCC2)cc1` (stereo not given) the T/C [6] was 110 % of control, the T/C (dose: 200.0 mg/kg/injection, schedule: Q04DX003 (ip), vehicle: saline with Tween-80) was 120 % of control and the T/C (dose: 400.0 mg/kg/injection, schedule: Q04DX003 (ip), vehicle: saline with Tween-80) was 100 % of control.
In the case of `O=C1OC(=O)C2C1C1C3C=CC3C1C21C=C1` (stereo not given), the T/C (dose: 85.0 mg/kg/injection, schedule: Q04DX003 (ip), vehicle: Klucel (hydroxypropylcellulose) (HPC)) is reported as 95 % of control, the T/C (dose: 100.0 mg/kg/injection, schedule: Q01DX001 (ip), vehicle: saline) is reported as 113 % of control and 116 % of control and the T/C (dose: 135.0 mg/kg/injection, schedule: Q04DX003 (ip), vehicle: Klucel (hydroxypropylcellulose) (HPC)) is reported as 104 % of control. The T/C (dose: 200.0 mg/kg/injection, schedule: Q01DX001 (ip), vehicle: saline) was 113 % of control, the T/C [7] was 113 % of control and the T/C (dose: 300.0 mg/kg/injection, schedule: Q04DX003 (ip), vehicle: Klucel (hydroxypropylcellulose) (HPC)) was 118 % of control. For the same molecule, the T/C (dose: 400.0 mg/kg/injection, schedule: Q01DX001 (ip), vehicle: saline) was 100 % of control and 104 % of control.
With `Clc1ccc(NC2=NCCN=C(Nc3ccc(Cl)cc3)SS2)cc1` the T/C [8] was 91 % of control and the T/C [9] was 91 % of control.
For `CCCCCn1c(Cl)c(/C=N\Nc2ccccc2[N+](=O)[O-])c2ccccc21`, the T/C (dose: 100.0 mg/kg/injection, schedule: Q01DX001 (ip), vehicle: Klucel (hydroxypropylcellulose) (HPC)) was 105 % of control, the T/C (dose: 200.0 mg/kg/injection, schedule: Q01DX001 (ip), vehicle: Klucel (hydroxypropylcellulose) (HPC)) was 96 % of control and the T/C (dose: 400.0 mg/kg/injection, schedule: Q01DX001 (ip), vehicle: Klucel (hydroxypropylcellulose) (HPC)) was 118 % of control.
In the case of `COC1C(OC(=O)c2ccc(C)[nH]2)C(O)C(Oc2ccc3c(O)c(NC(=O)c4ccc(O)c(CC=C(C)C)c4)c(=O)oc3c2Cl)OC1(C)C` (stereo not given), the T/C (dose: 50.0 mg/kg/injection, schedule: Q01DX009 (ip), vehicle: other) is reported as 106 % of control, the T/C (dose: 100.0 mg/kg/injection, schedule: Q01DX009 (ip), vehicle: other) is reported as 104 % of control and the T/C (dose: 200.0 mg/kg/injection, schedule: Q01DX009 (ip), vehicle: other) is reported as 115 % of control.
With `CCC(=O)O[C@H]1CC[C@H]2[C@@H]3CC[C@H]4CC(=O)[C@H](C)C[C@]4(C)[C@H]3CC[C@]12C` the T/C [9] was 87 % of control, the T/C (dose: 100.0 mg/kg/injection, schedule: Q04DX003 (ip), vehicle: Klucel (hydroxypropylcellulose) (HPC)) was 104 % of control and the T/C (dose: 200.0 mg/kg/injection, schedule: Q01DX009 (ip), vehicle: Klucel (hydroxypropylcellulose) (HPC)) was 95 % of control. For the same molecule, the T/C [7] was 100 % of control, the T/C (dose: 400.0 mg/kg/injection, schedule: Q01DX009 (ip), vehicle: Klucel (hydroxypropylcellulose) (HPC)) was 87 % of control and the T/C (dose: 400.0 mg/kg/injection, schedule: Q04DX003 (ip), vehicle: Klucel (hydroxypropylcellulose) (HPC)) was 104 % of control.
In the case of `O=C(Cn1cc(F)c(=O)[nH]c1=O)c1ccco1`, the T/C [1] is reported as 100 % of control, the T/C (dose: 100.0 mg/kg/injection, schedule: Q04DX003 (ip), vehicle: saline) is reported as 111 % of control and the T/C (dose: 200.0 mg/kg/injection, schedule: Q01DX009 (ip), vehicle: saline) is reported as 95 % of control. The T/C (dose: 200.0 mg/kg/injection, schedule: Q04DX003 (ip), vehicle: saline) was 105 % of control and 122 % of control, the T/C [2] was 100 % of control and the T/C (dose: 400.0 mg/kg/injection, schedule: Q04DX003 (ip), vehicle: saline) was 86 % of control. The T/C (dose: 600.0 mg/kg/injection, schedule: Q04DX003 (ip), vehicle: saline) was 95 % of control.
For `CN1CCN(C2CCCCc3ccccc32)CC1` (stereo not given), the T/C (dose: 25.0 mg/kg/injection, schedule: Q04DX003 (ip), vehicle: saline with Tween-80) was 104 % of control, the T/C (dose: 50.0 mg/kg/injection, schedule: Q04DX003 (ip), vehicle: saline with Tween-80) was 113 % of control and the T/C [6] was 109 % of control.
In the case of `CSc1nnc(/C=C/c2ccc3c(c2)OCO3)c(=O)n1N`, the T/C (dose: 100.0 mg/kg/injection, schedule: Q04DX002 (ip), vehicle: saline with Tween-80) is reported as 106 % of control and the T/C (dose: 200.0 mg/kg/injection, schedule: Q04DX002 (ip), vehicle: saline with Tween-80) is reported as 106 % of control.
With `CS(=O)CC(O)(c1ccccc1)c1cccs1` (stereo not given) the T/C [3] was 100 % of control, the T/C [4] was 93 % of control and the T/C [5] was 100 % of control.
`Clc1nc2nc(C(Cl)(Cl)Cl)[nH]c2nc1Cl` was tested, and the T/C (dose: 12.5 mg/kg/injection, schedule: Q01DX009 (ip), vehicle: Klucel (hydroxypropylcellulose) (HPC)) was 95 % of control, the T/C (dose: 25.0 mg/kg/injection, schedule: Q01DX009 (ip), vehicle: Klucel (hydroxypropylcellulose) (HPC)) was 108 % of control and the T/C [8] was 116 % of control.
For `CC(Cl)CN(CC(C)Cl)c1ccc(S(=O)(=O)Nc2ncccn2)cc1` (stereo not given), the T/C (dose: 12.0 mg/kg/injection, schedule: Q01DX009 (ip), vehicle: gum acacia) was 152 % of control, the T/C (dose: 26.0 mg/kg/injection, schedule: Q01DX009 (ip), vehicle: gum acacia) was 166 % of control and 172 % of control and the T/C (dose: 40.0 mg/kg/injection, schedule: Q01DX009 (ip), vehicle: gum acacia) was 175 % of control. The T/C (dose: 50.0 mg/kg/injection, schedule: Q01DX009 (ip), vehicle: gum acacia) was 190 % of control, the T/C (dose: 50.0 mg/kg/injection, schedule: Q04DX003 (ip), vehicle: gum acacia) was 100 % of control and the T/C (dose: 60.0 mg/kg/injection, schedule: Q01DX009 (ip), vehicle: gum acacia) was 183 % of control. For the same molecule, the T/C (dose: 90.0 mg/kg/injection, schedule: Q01DX009 (ip), vehicle: gum acacia) was 183 % of control and 215 % of control, the T/C (dose: 100.0 mg/kg/injection, schedule: Q01DX009 (ip), vehicle: gum acacia) was 272 % of control and the T/C (dose: 100.0 mg/kg/injection, schedule: Q04DX003 (ip), vehicle: gum acacia) was 100 % of control. The T/C (dose: 133.0 mg/kg/injection, schedule: Q01DX009 (ip), vehicle: gum acacia) was 230 % of control and the T/C (dose: 200.0 mg/kg/injection, schedule: Q04DX003 (ip), vehicle: gum acacia) was 105 % of control.
With `C(=N\c1ncn[nH]1)/c1ccco1` the T/C [3] was 111 % of control, the T/C [4] was 99 % of control and the T/C [5] was 102 % of control.
With `[O-]/C(CCCl)=N\[n+]1c2c(nc3ccccc31)-c1cccc3cccc-2c13` the T/C (dose: 12.5 mg/kg/injection, schedule: Q01DX001 (ip), vehicle: Klucel (hydroxypropylcellulose) (HPC)) was 102 % of control, the T/C (dose: 25.0 mg/kg/injection, schedule: Q01DX001 (ip), vehicle: Klucel (hydroxypropylcellulose) (HPC)) was 100 % of control and the T/C (dose: 50.0 mg/kg/injection, schedule: Q01DX001 (ip), vehicle: Klucel (hydroxypropylcellulose) (HPC)) was 102 % of control.
